From publication PMC6943437, “Coupling the Antimalarial Cell Penetrating Peptide TP10 to Classical Antimalarial Drugs Primaquine and Chloroquine Produces Strongly Hemolytic Conjugates” (Molecules, 2019) come the findings set out here.

This assay has as its system P. falciparum W2. It is filed as cell-based. Conditions: P. falciparum W2 (CQ-resistant), 48 h, n = 3. The procedure:
All conjugates and their respective parent CPP (Table 1), were screened in vitro for their antiplasmodial activity, using the CQ-resistant P. falciparum W2 strain. The primaquine analogue to 5a, i.e., conjugate 3 where the CPP is TP10, PQ-C4-TP10 (3a), was also included in the study for comparison.
Synchronized ring-stage P. falciparum parasites (W2 strain) were incubated with test compounds for 48 h in Roswell Park Memorial Institute (RPMI) 1640 medium containing 10% human serum or 0.5% Albumax serum substitute. Parasites were then fixed with 1% formaldehyde in phosphate-buffered saline (PBS), pH 7.4, for […] at RT and labeled with YOYO-1 (1 nM; molecular probes) in 0.1% Triton X-100 in PBS. Parasitemias were determined by flow cytometry, from dot plots (forward scatter versus fluorescence). For 50% inhibitory concentration (IC50) determinations, dose-response studies were performed, with the values normalized to percent control activity, and IC50s were calculated using GraphPad Prism, with data fitted by nonlinear regression.

Several values for one entry are separate records, joined by “and”; a condition that tells them apart may be missing. Equal entries are not always repeated. *1 amine or outer side, *2 acyl side, *3 side chain or, on linkers, in order; H or OH if unused. Where a SMILES comes first, the peptide text is derived from it. The star is where a group is joined. NH(CH2)4NH(7-Cl-4-quinolyl) = Clc1ccc2c(NCCCCN*)ccnc2c1; Suc = O=C(CCC(=O)[*:2])[*:1] Bounds are passed on as bounds.

As a reminder, the IC50 is the concentration that gives 50% inhibition. In turn, H-RQKRLIRQKRLIRQKRLI-NH2 [DPT-sh2] came in with an IC50 of over 10 µM.
The result for H-VKKKKIKREIKI-NH2 [DPT-sh1] reads over 10 µM.
The result for `CC[C@H](C)[C@H](NC(=O)[C@H](CCCCN)NC(=O)[C@H](CCCCN)NC(=O)[C@H](C)NC(=O)[C@H](CC(C)C)NC(=O)[C@H](C)NC(=O)[C@H](C)NC(=O)[C@H](CC(C)C)NC(=O)[C@H](C)NC(=O)[C@H](CCCCN)NC(=O)[C@H](CC(C)C)NC(=O)[C@H](CC(N)=O)NC(=O)[C@@H](NC(=O)[C@H](CCCCN)NC(=O)CNC(=O)[C@H](CC(C)C)NC(=O)[C@H](CC(C)C)NC(=O)[C@H](Cc1ccc(O)cc1)NC(=O)CNC(=O)[C@H](C)NC(=O)[C@H](CO)NC(=O)[C@H](CC(N)=O)NC(=O)[C@H](CC(C)C)NC(=O)[C@@H](NC(=O)[C@H](Cc1c[nH]c2ccccc12)NC(=O)CNC(=O)CCC(=O)NCCCCNc1ccnc2cc(Cl)ccc12)[C@@H](C)O)[C@@H](C)CC)C(=O)N[C@@H](CC(C)C)C(N)=O` [5b] reads 5.2 µM; that for `N=C(N)NCCC[C@H](NC(=O)CN)C(=O)N[C@@H](CCCCN)C(=O)N[C@@H](CCCCN)C(=O)N[C@@H](CCCNC(=N)N)C(=O)N[C@@H](CCCNC(=N)N)C(=O)N[C@@H](CCC(N)=O)C(=O)N[C@@H](CCCNC(=N)N)C(=O)N[C@@H](CCCNC(=N)N)C(=O)N[C@@H](CCCNC(=N)N)C(=O)N1CCC[C@H]1C(=O)N1CCC[C@H]1C(=O)N[C@@H](CCC(N)=O)C(N)=O` [TAT], over 10 µM.
Take `CC[C@H](C)[C@H](NC(=O)[C@H](CCCCN)NC(=O)[C@H](CCCCN)NC(=O)[C@H](C)NC(=O)[C@H](CC(C)C)NC(=O)[C@H](C)NC(=O)[C@H](C)NC(=O)[C@H](CC(C)C)NC(=O)[C@H](C)NC(=O)[C@H](CCCCN)NC(=O)[C@H](CC(C)C)NC(=O)[C@H](CC(N)=O)NC(=O)[C@@H](NC(=O)[C@H](CCCCN)NC(=O)CNC(=O)[C@H](CC(C)C)NC(=O)[C@H](CC(C)C)NC(=O)[C@H](Cc1ccc(O)cc1)NC(=O)CNC(=O)[C@H](C)NC(=O)[C@H](CO)NC(=O)[C@H](CC(N)=O)NC(=O)[C@H](CC(C)C)NC(=O)[C@@H](NC(=O)[C@H](Cc1c[nH]c2ccccc12)NC(=O)CN)[C@@H](C)O)[C@@H](C)CC)C(=O)N[C@@H](CC(C)C)C(N)=O` [Transportan]: the IC50 is 3.05 µM and 3.1 µM.
For the compound H-FFLIPKGGRKKRRQRRRPPQ-NH2 [PasTAT], the IC50 is over 10 µM.
In turn, `CC[C@H](C)[C@H](NC(=O)[C@H](CCCNC(=N)N)NC(=O)[C@@H](NC(=O)[C@H](C)NC(=O)[C@@H](NC(=O)[C@@H](NC(=O)[C@H](CC(C)C)NC(=O)[C@H](CCCNC(=N)N)NC(=O)[C@@H](NC(=O)CCC(=O)NCCCCNc1ccnc2cc(Cl)ccc12)C(C)C)[C@@H](C)CC)C(C)C)C(C)C)C(=O)N[C@@H](Cc1c[nH]c2ccccc12)C(=O)N[C@@H](CCCNC(=N)N)C(=O)N[C@@H](CCCNC(=N)N)C(N)=O` [5e] ({NH(CH2)4NH(7-Cl-4-quinolyl)-Suc}-VRLIVAVRIWRR-NH2) came in with an IC50 of over 10 µM.
For `CC[C@H](C)[C@H](NC(=O)[C@H](CCCCN)NC(=O)[C@@H](NC(=O)[C@H](CCC(=O)O)NC(=O)[C@H](CCCNC(=N)N)NC(=O)[C@H](CCCCN)NC(=O)[C@@H](NC(=O)[C@H](CCCCN)NC(=O)[C@H](CCCCN)NC(=O)[C@H](CCCCN)NC(=O)[C@H](CCCCN)NC(=O)[C@@H](NC(=O)CCC(=O)NCCCCNc1ccnc2cc(Cl)ccc12)C(C)C)[C@@H](C)CC)[C@@H](C)CC)C(N)=O` [5c] ({NH(CH2)4NH(7-Cl-4-quinolyl)-Suc}-VKKKKIKREIKI-NH2) the value was over 10 µM; for `N=C(N)NCCC[C@H](NC(=O)[C@H](CCCNC(=N)N)NC(=O)[C@H](CCCNC(=N)N)NC(=O)[C@H](CCCNC(=N)N)NC(=O)[C@H](CCCNC(=N)N)NC(=O)[C@H](CCCNC(=N)N)NC(=O)[C@H](CCCNC(=N)N)NC(=O)[C@H](CCCNC(=N)N)NC(=O)[C@@H](N)CCCNC(=N)N)C(N)=O` [R9], over 10 µM.
